SMILES | melting point [°C]
COc1ccc(CNc2ccccc2C(=O)Nc2cccc(C(F)(F)F)c2C)cn1 | 134 to 135
O=C(O)C(Cc1ccccc1)Oc1ccc2cc(-c3cnc(-c4cn(Cc5ccccc5)c5ccccc45)o3)ccc2c1 (stereo unspecified) | 125 to 127
COC(=O)C(C)(C(=O)O)N1C(=O)CCC(N2C(=O)c3ccccc3C2=O)C1=O (stereo unspecified) | 143 to 146
O=[N+]([O-])c1ccc(Br)cc1-c1cc(-c2ccc(Br)cc2)on1 | 184 to 185
COc1ccc(C2(CCO)C=CC=CN2)cc1OC1CCCC1 (stereo unspecified) | 94 to 96
Cc1[nH]cnc1/C=C1\CCc2sc3ccccc3c2C1=O | 220 to 223
CC(=O)NC[C@H]1CN(c2ccc(N3CCC4(CC3)OCCS4)c(F)c2)C(=O)O1 | 160 to 164
CCCCCCCCCCNC(CCCNC(=N)N)C(=O)O (stereo unspecified) | 100
N#CN=C(Nc1cccnc1)NC1(c2cccc(Cl)c2)CCC1 | 102 to 104
CCOc1ccc(CCc2ccc(OC(F)F)cc2)cc1 | 37
CCN(CCc1c[nH]c2ccc(F)cc12)C1COc2c(F)ccc(C(N)=O)c2C1 (stereo unspecified) | 127
CCNC(=O)c1ccccc1C(F)(F)F | 73 to 76
CC(c1ccccc1)N1Cc2cncn2C(c2ccc(C#N)cc2)C1=O (stereo unspecified) | 157 to 158
OC(c1ccc(F)cc1)(c1ccc(F)cc1)C1CCN(CCCOc2ccc(-c3ccccc3)cc2)CC1 | 108 to 109
Cc1cccc(C(=O)NCc2cccc3c2C(=O)N(C2CCC(=O)NC2=O)C3=O)n1 (stereo unspecified) | 197 to 199
CCOC(=O)c1ccc(C#CC(O)c2cc(-c3ccccc3)cc3c2C(C)(C)CCC3(C)C)cc1 (stereo unspecified) | 121
COc1cc(Cc2cnc(NCCCCc3ncccc3OC)[nH]c2=O)ccn1 | 72 to 74
Cc1ccc(-c2ccnc3c(C(=O)c4cccs4)cnn23)cc1NC(=O)c1ccccc1 | 216 to 218
CN(C)C(=O)COC1c2ccccc2CCc2ccccc21 | 73 to 75
Cc1nc2ccc(-c3ccc(OCC4(NC(=O)OCc5ccccc5)COC4)cc3)nn2c1-c1cnc(N)c(C(F)(F)F)c1 | 209 to 212
Cn1cc(-c2ccc(F)cc2)c(=O)c(-c2cccc(C(F)(F)F)c2)c1 | 133 to 134
O=C(c1ccccc1F)c1cccc2c1N(C(=O)CBr)CC2 | 136
CCOC(=O)C(=O)c1ccc(-c2ccc(-c3ccccc3)cc2)o1 | 91 to 94
CN1C[C@@H]2c3cc(Cl)ccc3Oc3ccccc3[C@H]2C1=O (relative stereo) | 148
COCCOc1cc2ncnc(NC3=CC(=O)C(N(C)c4ccc(OC)cc4)=CC3=O)c2cc1OC | 197 to 198
CCOC(=O)CC(NC(=O)c1ccccc1)C(=O)c1ccsc1 (stereo unspecified) | 62 to 63

SMILES | melting point [°C]
CC(=O)/C=C(\C)c1ccc(C2CCCCC2)c(Cl)c1 | 56.5 to 57.5
O=C(c1ccco1)N1CCN(c2cc(-c3ccccc3)c3c(n2)CCCC3)CC1 | 128 to 130
CCn1nc(C#N)c(Nc2ccc(Cl)cc2[N+](=O)[O-])n1 | 130 to 132
Cc1cccc(-n2nc(C)cc2-c2ccnc(C#N)c2)c1 | 128 to 130
COc1cccc(Sc2c3c(=O)n(C)c(=O)n(CC(C)C)c3cn2Cc2cccc3ccccc23)c1 | 130 to 133
Cc1cn(C(C)(C)C(=O)N(C)C)nc1-c1ccco1 | 131 to 134
CC(C)(C)c1cc(Br)c(O)c(C#N)c1 | 69 to 71
Cc1ccc(S(=O)(=O)c2ccccc2[N+](=O)[O-])cc1 | 155 to 156
O=C1Nc2cccc(-c3ccc(Oc4ccccc4)cc3)c2C12COc1cc3c(cc12)OCCO3 (stereo unspecified) | 243 to 246
CCC1SC=C(C)NC1=O (stereo unspecified) | 69 to 71
O=[N+]([O-])c1ccc(Nc2ccccn2)c(C(F)(F)F)c1 | 83 to 84
CC1CC(O)=CC(=O)O1 (stereo unspecified) | 103 to 104
CCOC1CC2(C)C(CCC3C4CCC(C(=O)OC)C4(C)CC(NC4CCCCC4)C32)CC1O (stereo unspecified) | 110 to 112
CCCc1c[nH]nc1OCCCc1cn(-c2ccc(C(F)(F)F)cn2)nc1OCC | 121 to 122
Clc1nnc(Cc2ccncc2)c2ccccc12 | 116 to 119
CC(C)(C)c1cc(CS[C@@H]2CCCC[C@H]2SCc2cc(C(C)(C)C)cc(C(C)(C)C)c2O)c(O)c(C(C)(C)C)c1 (relative stereo) | 104 to 106
COc1ccc(C(C)=Cc2ccncc2)c2c1OC(C)(C)C2 | 85 to 87
CC(C)C(=O)c1cc(O)c(O)c([N+](=O)[O-])c1 | 98 to 99
COc1ccc(C(=C(c2ccc(C#N)cc2)n2ccnc2)c2ccc(OC)cc2)cc1 | 174 to 176
O=C1CCC(=O)C1C(=O)CCc1ccc(Cl)c(Cl)c1 | 126 to 127
CC(C)(C)c1cc(-c2nc3n(c2C#N)CCS3)cc(C(C)(C)C)c1O | 207 to 208
Cc1cc(C)cc(NCc2ccc3nc(NCC(O)CN4CCOCC4)n(Cc4nc(C)ccc4O)c3c2)c1 (stereo unspecified) | 198
Cc1nc(N2CCN(CC(C)C)C2=O)sc1C(=O)NCc1cocn1 | 115 to 118
Oc1ccc2c(c1)OCC1c3ccccc3OC21 (stereo unspecified) | 148 to 152
CC1CCOC(CBr)(c2ccc(Cl)cc2Cl)O1 (stereo unspecified) | 69 to 70.5
CC1CCCCC1C(=O)Nc1ccc(-c2ncc(-c3ccc(NC(=O)C4CCCCCC4)cc3)[nH]2)cc1 (stereo unspecified) | 258 to 260

SMILES | melting point [°C]
COc1ccnc(CSCCN=C(NC#N)SC)c1 | 91.5 to 92.5
CCCCc1ccccc1C1C(C(=O)OCC)=C(CCC)Nc2[nH]ncc21 (stereo unspecified) | 175
CNC(=O)C(C)n1cc(C)c(-c2ccccc2)n1 (stereo unspecified) | 111 to 112
CC(C)c1nc(CCOCc2ccccc2)n(CCO)c1Sc1cc(Cl)cc(Cl)c1 | 129 to 130
CON=C(C(=O)O)c1nsc(NC=O)n1 | 185 to 186
O=C1NCCCN2c3ccccc3CC12 (stereo unspecified) | 159
O=C(Nc1ccc2[nH]cnc2c1)C(=O)N1CCC(Cc2ccc(F)cc2)CC1 | 104 to 110
CCOC(=O)c1cnc(Cc2ccccc2)c(C)c1Cl | 233 to 245
COc1cc2c(cc1OC)C(=CN1CCN(C(=O)c3ccco3)CC1)C(=O)N2 | 158 to 160
COCCC1(C(=O)N[C@@H](Cc2ccc(N3C(=O)c4cccc(C#N)c4C3=O)cc2)C(=O)OC)CCCC1 | 122 to 126
COc1cc2c(c(OC)c1OC)-c1ccc(SC)c(=O)cc1C(N)CC2 (stereo unspecified) | 168 to 170
O=C/C=C/c1ccc2ccccc2n1 | 85
O=C(O)c1ccc(C=CC(=O)N2CCc3c([nH]c4ccccc34)C2c2ccc3c(c2)OCO3)cc1 (stereo unspecified) | 254 to 256
C=C(C)Cn1c(=O)c2ccccc2n1C(=O)OCC | 48 to 50
COc1nccc2c(N)cccc12 | 53 to 57
O=[N+]([O-])c1cc(Cl)c(Oc2cc(Cl)c(Br)cc2Cl)cc1Oc1ccccc1 | 85
CS(=O)(=O)Nc1cc(C(c2cc(F)ccc2F)S(=O)(=O)c2ccc(F)cc2)c(Cl)cn1 (stereo unspecified) | 178 to 179
O=C(c1ccc(-c2cc3cnc(Nc4cccc(Cl)c4)nc3[nH]2)cc1)N1CCOCC1 | > 250
O=C(Nc1ccc(-n2nc(C(F)(F)F)cc2C(F)(F)F)cc1)c1ccccc1C(=O)c1ccccc1 | 204 to 205
COc1c(CBr)nc2sc(Cl)cn2c1=O | 160 to 162
COc1ccc(OC)c2c1C[C@](O)(CC#N)CC21SCCS1 | 173 to 174
COc1ccc(C(=O)c2ccc(Cl)nc2)c(OCc2ccccc2)c1 | 93 to 94
C=C1CCCN(Cc2ccc(OC)cc2)C1=O | 145 to 155
CCCCCCCCn1c(C)c(C(=O)c2ccccc2C(=O)O)c2ccccc21 | 121 to 123
CCOc1cc2ncc(C#N)c(CC(=O)c3ccc(Br)cc3)c2cc1OCC | 210 to 213
COC(=O)c1ccc(Cn2nc(Br)c3ccc(C(=O)NCC4CCCC4)cc32)c(OC)c1 | 161 to 162

SMILES | melting point [°C]
CCN1CCC(N(C)S(=O)(=O)c2ccc(Nc3nccc(Nc4ccc(F)cc4)n3)cc2)CC1 | 162 to 163
CCOC(=O)c1cc2cc(C#N)ccc2s1 | 138 to 139
CC(S)C(Cc1ccccc1)C(=O)Nc1cccc(C(=O)O)c1 (stereo unspecified) | 192 to 196
COc1ccc(-c2nsc(C(=O)O)c2C(=O)O)cc1OC | 190 to 192
CC(=O)NC1CCCCC1 | 108 to 109
N#CC(=NO)c1cccc(Br)c1 | 91 to 93
O=C(O)COc1ccc(C(=NO)c2cccs2)c2ccccc12 | 215
CNCC(O)c1cccn1C (stereo unspecified) | 64 to 66
Cc1ccc(OC2CCN(C(=O)C(=O)Nc3ccc4nc(S)[nH]c4c3)CC2)cc1 | 311 to 314
CC(C)[C@H](CC(N)=O)NC(=O)OCc1ccccc1 | 171 to 172
Cc1ccc(C2=C(c3ccc(C)cc3)C(c3ccc(C)cc3)=C(c3ccc(C)cc3)C2=O)cc1 | 244 to 245
CC1(Cl)C(=S)Nc2ccc(Cl)cc21 (stereo unspecified) | 248 to 251
CS(=O)(=O)c1ccc(-c2cc(N)sc2-c2ccc(F)cc2)cc1 | 207 to 209
O=C1N(Cc2cccc(Cl)n2)c2ccccc2C12COc1cc3c(cc12)OCCO3 (stereo unspecified) | 181 to 182
CCN(CC)CCCNc1ncc2cc(-c3c(C)cccc3C)c(NC(=O)NC(C)(C)C)nc2n1 | 86 to 91
CC(C)C(=O)Nc1ccn2nc(-c3ccccc3)c(-c3ccc(=O)n(C(C)C)n3)c2c1 | 199 to 200
Cc1nc(N)nc(O)c1I | 212
FC(F)c1nc2ccccc2n1-c1nc(NCc2ccncc2)nc(N2CCOCC2)n1 | 188 to 190
Cc1cc(C2CC2)nc(N)n1 | 113 to 115
N#Cc1ccc(-c2ccccc2)c(NC(=O)Nc2cccnc2)c1 | 180 to 182
COc1cc2ncc(C#N)c(Nc3ccc(Cl)c4ccccc34)c2cc1OC | > 250
COc1ccc2c(c1)C(CCCN1C(=O)c3ccccc3C1=O)=CCO2 | 78 to 80
CCc1nn(C2CCCC2)c2cc(C(=O)Nc3cccnc3)ccc12 | 133 to 135

— a melting point compilation (Tetko et al.; mined from patent text by program, amines drawn as free bases though some values may be those of a salt)
